According to patent publication US12161646B2, “Polycyclic carbamoylpyridone derivatives, pharmaceutical compositions and use thereof” (JIAXING ANDICON BIOTECH CO., LTD., priority 2018, dated 2024):

What was measured:
influenza virus = assay: CPE suppression effect confirmation test; format: cell-based; settings: for CPE inhibitory effect compared with S-033188A: relative to S-033188A; for EC50: unidentified influenza virus, 72 h, read-out: CPE_EC50
Bioavailability test = format: in vivo, SD rats; settings: for BA%: SD rats, from AUC of oral and intravenous administration; for half-life: SD, rat, in vivo, iv
Experimental: Example 6: Bioavailability Test
<Experimental Materials and Methods for Oral Absorption Research>
• (1) Animals used: SD rats are used. • (2) Feeding conditions: SD rats were allowed to take in solid feed and purified water freely. • (3) Dosing amount and grouping setting: Oral or intravenous administration were performed at prescribed dosage. The groups were set as follows. (the dosage of each compound varied)
Oral administration 1 to 30 mg/kg (n=5 to 6)
Intravenous administration 0.5 to 10 mg/kg (n=5 to 6) • (4) Preparation of dosing solution: suspension was used for oral administration through intragastric administration. Solution was used for intravenous administration through tail vein. • (5) Evaluation items: Blood was collected overtime, and the concentrations of the drugs in plasma were determined by LC/MS/MS. • (6) Statistical analysis: For concentration changes in plasma, the area under the concentration-time curve (AUC) in plasma was calculated using the nonlinear least squares method, and the bioavailability (BA) was calculated from the AUC in the oral administration group and the intravenous administration group, and the elimination half-life of drug concentration in plasma through intravenous administration was counted.

[1] = Detection of toxicity of samples to MDCK cells (alamarBlue); format: cell-based; settings: dog, 48 hours incubation
From the text: Example 9: Detection of Toxicity of Samples to MDCK Cells
The experiment uses alamarBlue® (Invitrogen) kit to detect the toxic effects of drugs on cells.
Experimental principle: The experiment uses alamarBlue® (Invitrogen) kit to detect the toxic effects of drugs on cells. AlamarBlue® is a redox indicator that produces changes in absorbance and fluorescent signals based on cellular metabolic activity. AlamarBlue® is freely soluble in water. After its oxidized form enters cells, it will be reduced by mitochondrial enzymes to produce measurable fluorescence and color changes. It is used for quantitative analysis of cell viability and cell proliferation, and for in vitro cytotoxicity studies. Normal cells with metabolic activity can convert the reagents to produce strong fluorescence and color changes.
Experimental procedure: MDCK cells were seeded in a 96-well cell culture plate, and cultured till cell attachment for later use. The drug was serially 3 times diluted from 2 times the highest test concentration to 8 gradients. The drug was added to the cells and cultured in a CO2 incubator at 37° C. […] The toxicity of the drug to cells is inversely proportional to the activity of the cells and is expressed as the activity of the cells. cell activity (%)=(drug group-blank control)/(cell control-blank control)*100 Calculation formula: […]

[2] = test system: A/WS/33, A/Victoria/3/75 or B/Maryland/1/59; format: in vivo, BALB/cAnNCrlCrlj mice; settings: single oral administration, 50% lethal suppression, 14 days after infection

Structure (SMILES) | CPE inhibitory effect compared with S-033188A (influenza virus) | EC50 (influenza virus) [µM] | BA% (Bioavailability test) [%] | half-life (Bioavailability test) [h] | CC50 at 48 h [1] [µM] | ED50 [2] [mg/kg/day]
[2H][C@]1(N2[C@@H]3COCCN3C(=O)c3c(O)c(=O)ccn32)c2ccccc2SCc2c1ccc(F)c2F [1A] | twice | 0.00068 | 7.1 | 4 | 48.3 | –
[2H][C@]1(N2[C@@H]3COCCN3C(=O)c3c(OCOC(=O)OC)c(=O)ccn32)c2ccccc2SCc2c1ccc(F)c2F [1B] | – | – | 18.4 | – | – | 0.41
[2H]C1([2H])Sc2ccccc2[C@@H](N2[C@@H]3COCCN3C(=O)c3c(O)c(=O)ccn32)c2ccc(F)c(F)c21 [2A] | – | – | 5.0 | 5 | – | –
[2H]C1([2H])Sc2ccccc2[C@@H](N2[C@@H]3COCCN3C(=O)c3c(OCOC(=O)OC)c(=O)ccn32)c2ccc(F)c(F)c21 [2B] | – | – | 15.9 | – | – | 0.71
[2H]C1([2H])Sc2ccccc2[C@]([2H])(N2[C@@H]3COCCN3C(=O)c3c(O)c(=O)ccn32)c2ccc(F)c(F)c21 [3A] | twice | 0.0006 | 7.8 | 5.2 | – | –
[2H]C1([2H])Sc2ccccc2[C@]([2H])(N2[C@@H]3COCCN3C(=O)c3c(OCOC(=O)OC)c(=O)ccn32)c2ccc(F)c(F)c21 [3B] | – | – | 19.8 | – | – | 0.33
O=C1c2c(O)c(=O)ccn2N([C@@H]2c3ccccc3SCc3c2ccc(F)c3F)[C@@H]2COCCN12 [S-033188A, reference compound] | – | – | 4.7 | 3.8 | 29.9 | –
COC(=O)OCOc1c2n(ccc1=O)N([C@@H]1c3ccccc3SCc3c1ccc(F)c3F)[C@@H]1COCCN1C2=O [S-033188B, reference compound] | – | – | 15.3 | – | – | 0.78
